Data published in patent publication US8637252B2, “Methods and compositions for determining altered susceptibility of HIV-1 to anti-HIV drugs” (Monogram Biosciences, Inc., priority 2011, dated 2014).

What was measured:
Format in all cases: cell-based
[1] = tested on: HIV-1 patient-derived test vectors with site-directed reverse transcriptase mutations; test: phenotypic drug resistance test, site-directed reverse transcriptase mutants in patient backgrounds
Procedure: In addition, using conventional technique, the T369I mutation was introduced into a resistance test vector comprising PR-RT segment derived from patient sample 62, which comprises mutations A62V, Q102K, K103N, K122E, D123N, C162S, D177E, 1178L, M184V, T200A, Q207E, T215Y, P243S, V245Q, A272P and R277K in reverse transcriptase. Among these mutations, K103N correlates with resistance to a number of NNRTIs, including NVP. This patient sample was tested for resistance to an NNRTI using the methods described above.
(§1) To further analyze the effects of N348I, T369I, and E399D on NNRTI resistance, an additional series of site directed mutants was constructed in non-wild-type backgrounds. In particular, site-directed mutants comprising the N348I, T369I, or E399D mutation were constructed in POL-containing test vectors obtained from three different patient samples. Results from these experiments are presented as FIG. 11.
as §1, with “on AZT” for “on NNRTI”, “the N3481,” for “the N348I,”, “from two” for “from three”, “samples.” for “samples. Results from these experiments are presented as FIG. 11.”

[2] = tested on: HIV-1 (PRRT-RHIN segment of patient sample 62); test: phenotypic drug resistance test, PRRT-RHIN amplicon of sample 62
From the text: (§2) Patient-derived segment(s) corresponding to the entire pol gene, encoding HIV protease, reverse transcriptase (including RNAse H), and integrase (hereinafter “POL”), the portion of pol encoding amino acids 1-305 of reverse transcriptase (hereinafter “PR-RT”), the portion of pol encoding amino acids 319-440 of reverse transcriptase (including RNAse H), and integrase (hereinafter “RHIN”), were amplified by the reverse transcription-polymerase chain reaction method (RT-PCR) using viral RNA isolated from viral particles present in the plasma or serum of HIV-infected individuals as described below. The portion of pol encoding protease, amino acids 1-531 of reverse transcriptase (including RNase H) (hereinafter “PRRT-RH”), or the portion of pol encoding protease, reverse transcriptase (including RNAse H) and integrase (hereinafter “PRRT-RHIN”), were assembled from amplicons described above by standard recombinant DNA techniques involving a KpnI restriction site at amino acid 400 or a Pin A1 site at amino acid 315.
(§3) Drug resistance tests performed with test vectors were carried out using packaging host and target host cells consisting of the human embryonic kidney cell line 293.
(§4) Resistance tests were carried out with the RTV libraries by using viral particles comprising the RTV libraries to infect a host cell in which the expression of the indicator gene is measured. The amount of indicator gene (luciferase) activity detected in infected cells is used as a direct measure of “infectivity,” i.e., the ability of the virus to complete a single round of replication. Thus, drug resistance or sensitivity can be determined by plotting the amount of luciferase activity produced by patient derived viruses in the presence of varying concentrations of the antiviral drug. By identifying the concentration of drug at which luciferase activity is half-maximum, the IC50 of the virus from which patient-derived segment(s) were obtained for the antiretroviral agent can be determined. […]

[3] = tested on: HIV-1 (PRRT-RH segment of patient sample 62); test: phenotypic drug resistance test, PRRT-RH amplicon of sample 62
From the text: as §2, §3, §4

[4] = tested on: HIV-1 NL4-3 site-directed reverse transcriptase mutants; test: phenotypic drug resistance test, site-directed reverse transcriptase mutants in NL4-3 background (POL segment assay); settings: for resistance versus known NNRTI mutation(s) alone: any of N348I, T369I, E399D combined with G190S, K103N, or K103R and V179D, NL4-3 background
Procedure: Further, a site directed double mutant T3691/K103N was generated using conventional techniques and tested for resistance to an NNRTI using the methods described above.
To assess the effects of mutations at positions 348, 369, and 399, a series of site-directed mutants were constructed in an wild-type (NL4-3) background. The NNRTI susceptibility phenotypes of these mutants were then determined using the POL segment assay according to Example 2.
In particular, site-directed mutants were constructed in an NL4-3 background comprising N348I, T369I, E399D, or the combination of N3481 and T369I.
Next, a series of site-directed mutants were constructed to assess the effects of combinations of N3481, T369I, and E399D with previously recognized NNRTI resistance mutations. In particular, mutants comprising N348I, T369I, and E399D were made in combination with G190S, with K103N, and with the combination of K103R and V179D. The effects of these combinations on DLV, EFV, and NVP susceptibility were tested using the POL segment assay according to the method describe in Example 2. The results from these experiments are presented as FIG. 10.
To assess the specific effects of mutations at positions 348, 369, and 399, a series of site-directed mutants were constructed in an wild-type (NL4-3) background. The AZT susceptibility phenotype of these mutants were then determined with a POL segment assay according to Example 2.
In particular, site-directed mutants were constructed in an NL4-3 background comprising N348I, T3691, E399D, or the combination of N348I and T3691. The FC in AZT susceptibility for each mutant is shown as FIG. 13.

[5] = E399D mutation, patient 50 background
[6] = E399D mutation, patient 58 or patient 62 background
[7] = N348I and T369I mutations, POL test vectors of patients 50, 58, 62

Compound | change in resistance on addition of mutation [1, 5] | change in resistance on addition of mutation [1, 6] | change in resistance on addition of mutation [1, 7] | Fold Change in IC50, PRRT-RHIN amplicon [2] [fold] | Fold Change in IC50, PRRT-RH amplicon [3] [fold] | FC in susceptibility relative to NL4-3, versus G190S mutant ([4]; G190S and E399D combination mutant) | resistance versus known NNRTI mutation(s) alone [4] | resistance of test vector ([1]; T369I introduced into PR-RT segment of patient sample 62 (contains K103N)) | resistance of mutant ([4]; site-directed double mutant T369I/K103N)
CC(C)Nc1cccnc1N1CCN(C(=O)c2cc3cc(NS(C)(=O)=O)ccc3[nH]2)CC1 [DLV, delavirdine] | increased | not | increased resistance | 140.00 | 250.00 | the same FC | – | – | –
O=C1Nc2ccc(Cl)cc2[C@@](C#CC2CC2)(C(F)(F)F)O1 [EFV, efavirenz] | increased | not | increased resistance | 202.00 | 276.90 | – | increased | – | –
Cc1ccnc2c1NC(=O)c1cccnc1N2C1CC1 [NVP, nevirapine] | increased | not | increased resistance | 400.00 | 400.00 | – | increased | enhanced resistance | enhanced resistance
